Assay results from patent US20200289514A1, “Novel Pyrazolo Pyrimidine Derivatives” (Novartis AG, priority 2015, published 2020).
pIC50: −log10 of the molar value.

How the values were obtained:
[1] = target: T1, C-domain of MALT1 (amino acids 329-824) (Homo sapiens, UniProt Q9UDY8); test: MALT1 Biochemical Assay - Version 1 (fluorescence lifetime)
T1 sequence (Q9UDY8 329-824): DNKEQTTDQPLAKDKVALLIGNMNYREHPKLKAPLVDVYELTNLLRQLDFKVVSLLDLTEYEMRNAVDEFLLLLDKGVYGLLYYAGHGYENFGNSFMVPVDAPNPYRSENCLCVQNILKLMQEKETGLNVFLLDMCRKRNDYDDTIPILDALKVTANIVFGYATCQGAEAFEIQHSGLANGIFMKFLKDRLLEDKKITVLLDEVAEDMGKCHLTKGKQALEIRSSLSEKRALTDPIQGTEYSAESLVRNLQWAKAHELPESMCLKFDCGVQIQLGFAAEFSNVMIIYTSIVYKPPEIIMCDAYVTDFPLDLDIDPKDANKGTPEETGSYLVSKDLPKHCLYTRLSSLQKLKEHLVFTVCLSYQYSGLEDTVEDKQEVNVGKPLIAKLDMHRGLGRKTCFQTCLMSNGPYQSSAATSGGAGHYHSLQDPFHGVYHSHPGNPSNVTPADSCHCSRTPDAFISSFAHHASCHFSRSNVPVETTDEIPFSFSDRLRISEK
Protocol: The readout parameter is the increase of fluorescence lifetime over time, proportional to enzyme activity.
The assay employs a short peptide substrate labeled with the single fluorophore PT14 as a fluorescence lifetime probe sensitive to the cleavage state of the substrate (PT14: 6-(9-oxo-9H-acridin-10-yl)-hexanoate, AssayMetrics, UK). […] Test compounds were dissolved in 100% (v/v) DMSO or a mixture containing 90% (v/v) DMSO and 10% (v/v) H2O at a stock concentration of 100 mM. Serial dilutions of test compounds were prepared using either 100% (v/v) DMSO or a mixture containing 90% (v/v) DMSO and 10% (v/v) H2O.
where y is the %-inhibition at the inhibitor concentration, x. A1 is the lowest inhibition value, and A2 the maximum inhibition value. The exponent, p, is the Hill coefficient.

Human IL2 promoter = Human IL2 promoter reporter gene assay (RGA) in Jurkat cells; type: cell-based; conditions: Jurkat clone K22 290_H23, anti-CD28 mAb + PMA, 5.5 h
Protocol: Human IL2 Promoter Reporter Gene Assay (RGA) in Jurkat Cells
The transfected Jurkat clone K22 290_H23 was propagated in RPMI 1640 supplemented with 10% heat inactivated fetal calf serum, 50 μM 2-mercaptoethanol and 1 mg/ml Geneticin. The cell concentration should not exceed 1×10e6/ml during culturing. The cells should not exceed passage 30. Prior to the assay the cells were washed and prepared to the concentration of 2×10e6 cells/ml.
Compound dilutions were made as 2×-concentrated solutions then diluted ½ by addition to cells. Two hundred and fifty μl of compound dilution and 250 μl of cells were mixed together in wells of a 96-deep well plate. Cells/compounds premix were incubated 30 min at 37° C. and 5% CO2 directly in the deep well plate.
After pre-incubation of cells with compounds, cells were stimulated with anti-CD28 mAb (clone 15E8) at 3 μg/ml+PMA at 1 μg/ml. Both co-stimulants were diluted in culture medium at a 10×-concentrated solution. 10 μl of co-stimulants were pipetted into the white 96-well plates and 100 μl of cell/compound mix was immediately added in duplicates. The cells were stimulated for 5.5 h at 37° C. and 5% CO2.
After cell stimulation, 50 μl of BriteLitePlus reagent (Perkin Elmer) was added to each well and the bioluminescence was measured with a Wallac EnVision reader (Perkin Elmer).

SMILES	pIC50 [1]	pIC50 (Human IL2 promoter)
CC(=O)N1CC[C@@H](O[C@@H](C)c2c(NC(=O)Nc3cnc(-n4nccn4)c(Cl)c3)cnc3cc(Cl)nn23)C1 [Example 13, 1-(7-((S)-1-(((R)-1-acetylpyrrolidin-3-yl)oxy)ethyl)-2-chloropyrazolo[1,5-a]pyrimidin-6-yl)-3-(5-chloro-6-(2H-1,2,3-triazol-2-yl)pyridin-3-yl)urea]	7.64	7.06
CO[C@@H](C)c1c(NC(=O)Nc2cncc(C#N)c2)cnc2cc(F)nn12 [Example 12, (S)-1-(5-cyanopyridin-3-yl)-3-(2-fluoro-7-(1-methoxyethyl)pyrazolo[1,5-a]pyrimidin-6-yl)urea]	7.51	7.14
COCC1(c2c(NC(=O)Nc3ccnc(C#N)c3)cnc3cc(Cl)nn23)CC1 [Example 37, 1-(2-chloro-7-(1-(methoxymethyl)cyclopropyl)pyrazolo [1,5-a]pyrimidin-6-yl)-3-(2-cyanopyridin-4-yl)urea]	7.60	7.24
CO[C@@H](C)c1c(NC(=O)Nc2cc[n+]([O-])c(C(F)F)c2)cnc2cc(F)nn12 [Example 42, (S)-2-(difluoromethyl)-4-(3-(2-fluoro-7-(1-methoxyethyl)pyrazolo[1,5-a]pyrimidin-6-yl)ureido)pyridine 1-oxide]	7.02	6.14
COCCO[C@@H](C)c1c(NC(=O)Nc2cnc(-n3nccn3)c(C(F)(F)F)c2)cnc2cc(Cl)nn12 [Example 7, (S)-1-(6-(2H-1,2,3-triazol-2-yl)-5-(trifluoromethyl)pyridin-3-yl)-3-(2-chloro-7-(1-(2-methoxyethoxy)ethyl)pyrazolo[1,5-a]pyrimidin-6-yl)urea]	8.15	7.57
CO[C@@H](C)c1c(NC(=O)Nc2cnc(C(=O)N(C)C)c(Cl)c2)cnc2cc(Cl)nn12 [Example 31, (S)-3-chloro-5-(3-(2-chloro-7-(1-methoxyethyl)pyrazolo [1,5-a]pyrimidin-6-yl)ureido)-N,N-dimethylpicolinamide]	7.92	7.46
CO[C@@H](C)[C@H](OC)c1c(NC(=O)Nc2cnc(-n3nccn3)c(Cl)c2)cnc2cc(Cl)nn12 [Example 10, 1-(5-chloro-6-(2H-1,2,3-triazol-2-yl)pyridin-3-yl)-3-(2-chloro-7-((1R, 2S)-1,2-dimethoxypropyl)pyrazolo[1,5-a]pyrimidin-6-yl) urea]	–	7.66
CO[C@@H](C)c1c(NC(=O)Nc2cncc(C(F)(F)F)c2)cnc2cc(F)nn12 [Example 30, (S)-1-(2-fluoro-7-(1-methoxyethyl)pyrazolo [1,5-a]pyrimidin-6-yl)-3-(5-(trifluoro-methyl)pyridin-3-yl)urea]	8.15	7.70
CO[C@@H](C)c1c(NC(=O)Nc2cnc(C(=O)N3CCCC3)c(Cl)c2)cnc2cc(Cl)nn12 [Example 33, (S)-1-(5-chloro-6-(pyrrolidine-1-carbonyl)pyridin-3-yl)-3-(2-chloro-7-(1-methoxyethyl)pyrazolo [1,5-a]pyrimidin-6-yl)urea]	7.96	7.36
CO[C@H](c1c(NC(=O)Nc2cnc(-n3nccn3)c(C#N)c2)cnc2cc(C)nn12)C(C)C [Example 15, (S)-1-(5-cyano-6-(2H-1,2,3-triazol-2-yl)pyridin-3-yl)-3-(7-(1-methoxy-2-methylpropyl)-2-methylpyrazolo[1,5-a]pyrimidin-6-yl)urea]	8.05	7.92
COCCOc1ncc(Cl)cc1NC(=O)Nc1cnc2cc(Cl)nn2c1[C@H](C)OC [Example 21, (S)-1-(5-chloro-2-(2-methoxyethoxy)pyridin-3-yl)-3-(2-chloro-7-(1-methoxyethyl)-pyrazolo[1,5-a]pyrimidin-6-yl)urea]	8.05	7.33
COc1ncc(NC(=O)Nc2cnc3cc(C)nn3c2[C@@H](OC)C(C)C)cc1C#N [Example 22, (S)-1-(5-cyano-6-methoxypyridin-3-yl)-3-(7-(1-methoxy-2-methylpropyl)-2-methylpyrazolo[1,5-a]pyrimidin-6-yl)urea]	8.15	7.60
CNC(=O)c1ncc(NC(=O)Nc2cnc3cc(Cl)nn3c2[C@H](C)OC)cc1Cl [Example 34, (S)-3-chloro-5-(3-(2-chloro-7-(1-methoxyethyl)pyrazolo [1,5-a]pyrimidin-6-yl)ureido)-N-methylpicolinamide]	8.15	7.55
COc1ncc(NC(=O)Nc2cnc3cc(Cl)nn3c2[C@H](C)OC)cc1C#N [Example 16, (S)-1-(2-chloro-7-(1-methoxyethyl)pyrazolo [1,5-a]pyrimidin-6-yl)-3-(5-cyano-6-methoxypyridin-3-yl)urea]	8.52	7.70
C[C@H](N)c1c(NC(=O)Nc2cnc(-n3nccn3)c(Cl)c2)cnc2cc(Cl)nn12 [Example 38, (S)-1-(7-(1-aminoethyl)-2-chloropyrazolo[1,5-a]pyrimidin-6-yl)-3-(5-chloro-6-(2H-1,2,3-triazol-2-yl)pyridin-3-yl)urea]	7.62	7.07
CC(C)c1c(NC(=O)Nc2cnc(-n3nccn3)c(Cl)c2)cnc2cc(Cl)nn12 [Example 4, 1-(5-chloro-6-(2H-1,2,3-triazol-2-yl)pyridin-3-yl)-3-(2-chloro-7-isopropylpyrazolo[1,5-a]pyrimidin-6-yl)urea]	–	6.99
CO[C@@H](C)[C@H](OC)c1c(NC(=O)Nc2cnc(-n3nccn3)c(C#N)c2)cnc2cc(Cl)nn12 [Example 25, 1-(2-chloro-7-((1R, 2S)-1,2-dimethoxypropyl)pyrazolo[1,5-a]pyrimidin-6-yl)-3-(5-cyano-6-(2H-1,2,3-triazol-2-yl)pyridin-3-yl)urea]	8.40	7.68
COc1ncc(NC(=O)Nc2cnc3cc(Cl)nn3c2[C@H](C)O[C@H]2CCN(C(C)=O)C2)cc1C#N [Example 26, 1-(7-((S)-1-(((S)-1-acetylpyrrolidin-3-yl)oxy)ethyl)-2-chloropyrazolo[1,5-a]pyrimidin-6-yl)-3-(5-cyano-6-methoxypyridin-3-yl)urea]	7.66	6.95
CO[C@@H](C)c1c(NC(=O)Nc2ccnc(C(O)C(F)(F)F)c2)cnc2cc(Cl)nn12 (stereo partly drawn) [Example 20, 1-(2-chloro-7-((S)-1-methoxyethyl)pyrazolo [1,5-a]pyrimidin-6-yl)-3-(2-(2,2,2-trifluoro-1-hydroxyethyl)pyridin-4-yl)urea]	8.05	7.00
CO[C@@H](C)c1c(NC(=O)Nc2ccnc(C#N)c2)cnc2cc(F)nn12 [Example 23, (S)-1-(2-cyanopyridin-4-yl)-3-(2-fluoro-7-(1-methoxyethyl)pyrazolo [1,5-a]pyrimidin-6-yl)urea]	7.80	7.38
CO[C@@H](C)c1c(NC(=O)Nc2cncc(C(F)F)c2)cnc2cc(F)nn12 [Example 29, (S)-1-(5-(difluoro-methyl)pyridin-3-yl)-3-(2-fluoro-7-(1-methoxyethyl)-pyrazolo[1,5-a]pyrimidin-6-yl)urea]	7.30	6.87
COc1ncc(NC(=O)Nc2cnc3cc(C)nn3c2[C@H](C)OC)cc1C#N [Example 24, (S)-1-(5-cyano-6-methoxypyridin-3-yl)-3-(7-(1-methoxyethyl)-2-methylpyrazolo[1,5-a]pyrimidin-6-yl)urea]	7.85	7.21
Cc1cc2ncc(NC(=O)Nc3cncc(C#N)c3)c([C@H](C)O)n2n1 [Example 39, (S)-1-(5-cyanopyridin-3-yl)-3-(7-(1-hydroxyethyl)-2-methylpyrazolo [1,5-a]pyrimidin-6-yl)urea]	7.14	6.22
CO[C@@H](C)c1c(NC(=O)Nc2cc(C(C)O)nc(C(F)(F)F)c2)cnc2cc(F)nn12 (stereo partly drawn) [Example 17, 1-(2-fluoro-7-((S)-1-methoxyethyl)pyrazolo [1,5-a]pyrimidin-6-yl)-3-(2-(1-hydroxyethyl)-6-(trifluoromethyl)pyridin-4-yl)urea]	7.70	7.06
COc1ncc(NC(=O)Nc2cnc3cc(Cl)nn3c2[C@@H](OC)[C@H](C)OC)cc1C#N [Example 36, 1-(2-chloro-7-((1R, 2S)-1,2-dimethoxypropyl)pyrazolo[1,5-a]pyrimidin-6-yl)-3-(5-cyano-6-methoxypyridin-3-yl)urea]	8.52	7.46
CO[C@@H](C)c1c(NC(=O)Nc2ccnc(C(F)(F)F)c2)cnc2cc(Cl)nn12 [Example 3, (S)-1-(2-chloro-7-(1-methoxyethyl)pyrazolo[1,5-a]pyrimidin-6-yl)-3-(2-(trifluoromethyl)pyridin-4-yl)urea]	–	7.44
